Consider one compound from patent US20030139442A1, “Vasoactive agents” (priority 2002, published 2003).

For the experiment, the target named is T1, human GPR14 (Homo sapiens, UniProt Q9UKP6).
T1 construct: expressed in transfected cells
T1 sequence (Q9UKP6 1-389): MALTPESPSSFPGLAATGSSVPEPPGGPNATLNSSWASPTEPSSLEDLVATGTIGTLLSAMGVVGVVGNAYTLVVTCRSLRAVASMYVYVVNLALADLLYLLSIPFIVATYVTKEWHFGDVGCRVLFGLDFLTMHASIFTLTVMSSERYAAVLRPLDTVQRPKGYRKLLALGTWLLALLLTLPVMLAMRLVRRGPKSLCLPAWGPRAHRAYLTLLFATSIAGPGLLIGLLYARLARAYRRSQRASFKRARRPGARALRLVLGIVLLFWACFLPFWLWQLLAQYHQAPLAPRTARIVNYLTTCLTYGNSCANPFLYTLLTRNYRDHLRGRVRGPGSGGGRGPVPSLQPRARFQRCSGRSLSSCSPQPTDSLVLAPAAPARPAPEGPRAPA
In words: Inhibition of binding of [125I]-labeled human urotensin II to GPR14 using human GPR14-expressing CHO cell fraction. The conditions noted are these: 1 nM [125I]-labeled human urotensin II; human GPR14-expressing CHO cell membrane fraction; 25° C., 3 hours; read-out: Inhibitory concentration (concentration showing 50% inhibition of human GPR14 binding activity). The protocol: To 1×10^8 CHO/GPR14 cells were added 10 ml of homogenate buffer (10 mM NaHCO3, 5 mM EDTA, 0.5 mM PMSF, 1 μg/ml pepstatin, 4 μg/ml E64, 20μg/ml leupeptin), and disrupted using Polytron (12,000 rpm, 1 minute). Cell debris solution was centrifuged at 1,000 g for 15 minutes to obtain a supernatant. The supernatant was then […] (in Beckman type 30 rotor, 30,000 rpm, 1 hour), and the resultant precipitant was collected as human GPR14-expressing CHO cell fraction.
Isotope-labeled human urotensin II to be used in experiments for testing inhibition of binding was prepared as described below. 5 μg of human urotensin II (available from Peptide Institute, Inc.) was dissolved in 25 μl of 0.4M sodium acetate (pH 5.6). […]
Human GPR14-expressing CHO cell fraction was diluted in a membrane diluting buffer (20 mM phosphate buffer (pH7.3), 150 mM NaCl, 5 mM MgCl2, 0.1% BSA, 0.05% CHAPS, 0.5 mM PMSF, 0.1 μg/ml Pepstatin, 20 μg/ml Leupeptin, 4 μg/ml E-64) to prepare a solution of cell membrane fraction (protein concentration:3 μg/ml) for assay. […] Next, the filter was washed three times with membrane diluting buffer (0.2 ml), added with 20 μl of Microscinti 20 (Packard), and determined for radioactivity in Topcount (Packard). Specific-binding is calculated by subtracting non-specific binding from the total binding. […]

In the case of `Nc1c2c(nc3ccc(-c4ccsc4)cc13)N(Cc1ccccc1)CC2` [compound 3], the IC50 came to 33 nM.
